Measurements as given in patent US20230094922A1, “METHODS OF THERAPEUTIC PROGNOSTICATION” (GENETIKAPLUS LTD., priority 2020, published 2023).

Test system: iPSC-derived cortical neurons
Assay type: cell-based
Settings: responders vs non-responders after 10 μM Bupropion

CC(NC(C)(C)C)C(=O)c1cccc(Cl)c1 (stereo not drawn) [Bupropion, 3-Chloro-N-tert-butyl-β-keto-α-methylphenethylamin]
logFC PARP6 (NS): −0.681 | logFC PCBP4 (NS): −1.293 | logFC PCDH10 (NS): −1.015 | logFC PCSK1N (NS): −1.46 | logFC PDYN (NS): −1.613 | logFC PGM2L1 (NS): −1.008 | logFC PHACTR3 (NS): −1.439 | logFC PID1 (NS): −1.455 | logFC PIK3R1 (NS): −0.9783 | logFC PITPNC1 (NS): −0.8298 | logFC PITPNM2 (NS): −0.7259 | logFC PKIA (NS): −1.194 | logFC PLPPR2 (NS): −0.974 | logFC PNMA3 (NS): −1.221 | logFC PPEF1 (NS): −1.59 | logFC PPFIA2 (NS): −1.898 | logFC PPFIA3 (NS): −0.735 | logFC PPM1K (NS): −0.7077 | logFC PPP1R13B (NS): −1.191 | logFC PPP2R2B (NS): −1.116 | logFC PPP2R2C (NS): −1.735 | logFC PPP2R5B (NS): −1.051 | logFC PRDM8 (NS): −2.418 | logFC PSD (NS): −1.027 | logFC PSD2 (NS): −1.447 | logFC PTPRH (NS): −1.255 | logFC PTPRN2 (NS): −1.272 | logFC PTPRR (NS): −1.517 | logFC RAB3A (NS): −1.354 | logFC RAB3C (NS): −1.236 | logFC RAB6B (NS): −1.225 | logFC RAB33A (NS): −1.51 | logFC RAP1GAP (NS): −0.7191 | logFC RASGEF1B (NS): −1.168 | logFC RBFOX1 (NS): −1.576 | logFC RBFOX3 (NS): −1.575 | logFC RBP4 (NS): −2.21 | logFC RCAN2 (NS): −1.602 | logFC REM2 (NS): −1.186 | logFC RETREG2 (NS): −0.5717 | logFC RGR (NS): −2.072 | logFC RGS7 (NS): −1.689 | logFC RHBDL3 (NS): −1.325 | logFC RHOBTB2 (NS): −0.7317 | logFC RIMS1 (NS): −1.83 | logFC RIT2 (NS): −2.318 | logFC RNF152 (NS): −1.135 | logFC RNF165 (NS): −0.9556 | logFC RPS6KA2 (NS): −0.8831 | logFC RTN1 (NS): −1.456 | logFC RUFY3 (NS): −0.7072 | logFC RUNDC3B (NS): −1.512 | logFC RUNX1T1 (NS): −1.916 | logFC RXRG (NS): −1.776 | logFC SAMD14 (NS): −1.111 | logFC SARM1 (NS): −1.209 | logFC SCAPER (NS): −0.7606 | logFC SCG2 (NS): −1.691 | logFC SCG3 (NS): −1.431 | logFC SCN1A (NS): −1.947 | logFC SCN2A (NS): −1.841 | logFC SCN3B (NS): −1.722 | logFC SCN7A (NS): −1.457 | logFC SCN9A (NS): −1.803 | logFC SEPTIN3 (NS): −1.333 | logFC SERP2 (NS): −1.449 | logFC SEZ6L (NS): −1.45 | logFC SEZ6L2 (NS): −0.7768 | logFC SHANK1 (NS): −1.292 | logFC SHISAL1 (NS): −1.498 | logFC SHISAL2A (NS): −1.16 | logFC SIDTI (NS): −2.103 | logFC SIT1 (NS): −1.927 | logFC SLC4A8 (NS): −0.8668 | logFC SLC7A14 (NS): −1.705 | logFC SLC8A3 (NS): −1.496 | logFC SLC17A6 (NS): −2.069 | logFC SLC22A15 (NS): −0.9589 | logFC SLC22A23 (NS): −1.148 | logFC SLC37A1 (NS): −1.052 | logFC SLC38A4 (NS): −1.273 | logFC SLCO2B1 (NS): −1.491 | logFC SLCO5A1 (NS): −1.211 | logFC SLITRK1 (NS): −1.312 | logFC SMAP2 (NS): −0.8196 | logFC SMPD3 (NS): −1.445 | logFC SNAP91 (NS): −1.605 | logFC SNCB (NS): −1.524 | logFC SNCG (NS): −1.396 | logFC SNPH (NS): −1.134 | logFC SNTG1 (NS): −2.048 | logFC SPNS2 (NS): −1.211 | logFC SPTBN4 (NS): −1.122 | logFC SRRM3 (NS): −1.175 | logFC SSTR2 (NS): −1.449 | logFC ST8SIA2 (NS): −1.153 | logFC STK32B (NS): −1.644 | logFC STX1B (NS): −0.9907 | logFC STXBP1 (NS): −1.033 | logFC SV2A (NS): −0.9341 | logFC SYN1 (NS): −1.543 | logFC SYNGR1 (NS): −0.8271 | logFC SYP (NS): −1.709 | logFC SYT1 (NS): −1.058 | logFC SYT7 (NS): −1.505 | logFC SYT13 (NS): −1.444 | logFC TAC1 (NS): −1.101 | logFC TAFA1 (NS): −2.193 | logFC TAGLN3 (NS): −1.002 | logFC TANC2 (NS): −0.7278 | logFC TBC1D24 (NS): −0.8527 | logFC TERF2IP (NS): −0.7455 | logFC TH (NS): −1.664 | logFC THRB (NS): −2.357 | logFC TIMP2 (NS): −0.878 | logFC TLCD3B (NS): −1.431 | logFC TMEM59L (NS): −0.8819 | logFC TMEM121B (NS): −0.8958 | logFC TMEM132B (NS): −1.025 | logFC TMEM151A (NS): −1.522 | logFC TMEM151B (NS): −1.463 | logFC TMEM178A (NS): −0.904 | logFC TMEM246 (NS): −1.159 | logFC TOM1L2 (NS): −0.7199 | logFC TP53I11 (NS): −0.8407 | logFC TP53INP2 (NS): −1.177 | logFC TPPP (NS): −1.04 | logFC TRIB2 (NS): −0.7077 | logFC TRIM9 (NS): −1.352 | logFC TSPAN7 (NS): −1.098 | logFC TSPYL5 (NS): −1.843 | logFC TTBK1 (NS): −1.374 | logFC TUBB2B (NS): −0.7583 | logFC TVP23A (NS): −1.064 | logFC VPS26B (NS): −0.6245 | logFC VSTM2A (NS): −1.971 | logFC VWA5B2 (NS): −1.111 | logFC VXN (NS): −1.527 | logFC WDR47 (NS): −0.8343 | logFC WDR82 (NS): −0.4862 | logFC WNK2 (NS): −0.7608 | logFC WSB2 (NS): −0.8644 | logFC ZC3HAV1L (NS): −2.186 | logFC ZDHHC22 (NS): −1.455 | logFC ZFP3 (NS): −1.933 | logFC ZNF385A (NS): −0.8795 | logFC ZNF439 (NS): −2.201 | logFC ABCC6 (p<0.01): −0.5461 | logFC ADAMTS4 (p<0.01): −0.723 | logFC ADAMTS8 (p<0.01): −1.658 | logFC ADAMTS15 (p<0.01): −1.743 | logFC ADAMTSL1 (p<0.01): −1.46 | logFC ADAMTSL2 (p<0.01): −1.833 | logFC ALDOC (p<0.01): −0.6635 | logFC APOL2 (p<0.01): −0.6452 | logFC AQP6 (p<0.01): −1.137 | logFC ARHGAP23 (p<0.01): −0.5891 | logFC ARHGEF28 (p<0.01): −0.916 | logFC ARL17B (p<0.01): −1.232 | logFC ASPN (p<0.01): −3.695 | logFC BDKRB2 (p<0.01): −1.475 | logFC C1R (p<0.01): −1.32 | logFC C5orf63 (p<0.01): −1.211 | logFC CABP7 (p<0.01): −1.06 | logFC CACNA1H (p<0.01): −0.5137 | logFC CCDC183 (p<0.01): −0.5281 | logFC CCDC187 (p<0.01): −1.023 | logFC CCER2 (p<0.01): −0.8431 | logFC CD151 (p<0.01): −0.4377 | logFC CDKN1C (p<0.01): −0.6211 | logFC CEMIP (p<0.01): −2.321 | logFC CHST8 (p<0.01): −1.474 | logFC COL1A1 (p<0.01): −1.88 | logFC COL6A1 (p<0.01): −0.5639 | logFC COL8A2 (p<0.01): −2.755 | logFC COL15A1 (p<0.01): −2.224 | logFC CPA4 (p<0.01): −2.791 | logFC CPNE5 (p<0.01): −0.937 | logFC CXCL2 (p<0.01): −1.783 | logFC CXCL6 (p<0.01): −2.412 | logFC CXCL8 (p<0.01): −3.086 | logFC DHRS3 (p<0.01): −1.126 | logFC DRGX (p<0.01): −4.337 | logFC DYRK1B (p<0.01): −0.3984 | logFC EFEMP2 (p<0.01): −0.7929 | logFC EGFLAM (p<0.01): −1.798 | logFC ELN (p<0.01): −2.048 | logFC EPHB3 (p<0.01): −0.4956 | logFC EYA2 (p<0.01): −0.955 | logFC FAM20C (p<0.01): −0.6923 | logFC FBLN5 (p<0.01): −1.918 | logFC FMOD (p<0.01): −2.269 | logFC FNDC5 (p<0.01): −0.7008 | logFC FRMPD1 (p<0.01): −2.303 | logFC GAA (p<0.01): −0.4856 | logFC GALNT14 (p<0.01): −1.152 | logFC GLIS2 (p<0.01): −0.5025 | logFC GPBAR1 (p<0.01): −0.9131 | logFC HCN1 (p<0.01): −2.181 | logFC HES6 (p<0.01): −1.04 | logFC HMX1 (p<0.01): −1.478 | logFC HOXB5 (p<0.01): −2.739 | logFC HS3ST2 (p<0.01): −1.228 | logFC HS6ST1 (p<0.01): −0.6264 | logFC IAH1 (p<0.01): −0.789 | logFC IGFBP5 (p<0.01): −0.9814 | logFC IL17RC (p<0.01): −0.5333 | logFC INHBB (p<0.01): −1.748 | logFC INMT (p<0.01): −1.061 | logFC IRF2BPL (p<0.01): −0.3835 | logFC ISLR (p<0.01): −1.646 | logFC ITPRIP (p<0.01): −0.5931 | logFC JOSD2 (p<0.01): −0.7377 | logFC KCNA1 (p<0.01): −3.416 | logFC KCNJ5 (p<0.01): −1.028 | logFC KDM4B (p<0.01): −0.331 | logFC KHDC1 (p<0.01): −0.7724 | logFC KIF26A (p<0.01): −0.5135 | logFC KLHL35 (p<0.01): −1.144 | logFC LGALS3BP (p<0.01): −0.9602 | logFC LOXL1 (p<0.01): −0.6236 | logFC LRFN5 (p<0.01): −0.6816 | logFC LURAP1L (p<0.01): −1.086 | logFC LYPD1 (p<0.01): −0.7703 | logFC MAB21L2 (p<0.01): −0.9329 | logFC MAFB (p<0.01): −0.573 | logFC MCC (p<0.01): −0.8548 | logFC MGP (p<0.01): −2.67 | logFC MKX (p<0.01): −1.878 | logFC MX2 (p<0.01): −1.618 | logFC NDUFA4L2 (p<0.01): −0.8379 | logFC NFIX (p<0.01): −2.446 | logFC NNMT (p<0.01): −2.326 | logFC NPR2 (p<0.01): −0.5942 | logFC NTNG2 (p<0.01): −1.161 | logFC OGFR (p<0.01): −0.318 | logFC OLFML2B (p<0.01): −1.03 | logFC OPRK1 (p<0.01): −0.939 | logFC OPRM1 (p<0.01): −1.985 | logFC OPTN (p<0.01): −0.44 | logFC OTOG (p<0.01): −1.855 | logFC P4HA3 (p<0.01): −2.239 | logFC PADI2 (p<0.01): −1.485 | logFC PALM (p<0.01): −0.581 | logFC PARP10 (p<0.01): −1.041 | logFC PENK (p<0.01): −1.977 | logFC PHOX2B (p<0.01): −2.192 | logFC PIEZO2 (p<0.01): −2.464 | logFC PIRT (p<0.01): −3.199 | logFC PLAC9 (p<0.01): −1.585
